Converted amounts (≈) assume the structure as drawn. “And” between values parts separate entries of the source, which are not always exact repeats. Equal entries are not always repeated. Each block holds one compound with its values, some of them ahead of it.
Legend:
[1] = system: E. coli 82 TR(pl 81), transformant carrying blaKPC-3; assay: whole cell assay, meropenem MIC with tested agent; format: cell-based, Escherichia coli; conditions: for MIC: Escherichia coli, read-out: MIC of agent alone
Method in brief: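 Checkerboard synergy testing crossed two-fold dilutions of the tested agents or PBA (4–16 mg/L) with β-lactam dilutions (1–64 mg/L), and antibiotic MICs were read at each agent level. FICI was derived from the interface wells. Separately, each agent's own MIC came from standard microdilution.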

KPC producers = assay: microdilution with carbapenems; format: cell-based
Description: (§1) To examine the ability of tested agents to inhibit various carbapenemases and AmpC-enzymes, their synergy with antibiotics against β-lactamase-producing strains was assessed by checkerboard microdilution assay, with slight modification. Checkerboards were prepared in microtiter plates, with seven two-fold dilutions of β-lactams (1–64 mg/L) in the rows and three two-fold dilutions of tested agents and PBA (4–16 mg/L) in the columns. Tested agents’ concentrations were limited to the concentrations at which the newest commercially available BLIs (vaborbactam, relebactam, and avibactam) are used in susceptibility testing. Plates were inoculated and incubated as in the MIC microdilution assay. Parallel, MICs of tested agents and PBA alone were determined by the microdilution assay. Following the incubation, antibiotic MICs in the presence of each agent’s concentration were determined. Moreover, for the first well without growth found in each checkerboard row and column along the growth/non-growth interface, the fractional inhibitory concentration index (FICI) was calculated using the formula below:FICI = [(MIC of antibiotic in combination)/(MIC of antibiotic alone)] + [(MIC of the tested agent in combination)/(MIC of tested agent alone)].
(§2) For calculations, all off-scale MICs were converted to the next-highest doubling concentration. Subsequently, both the average and the lowest FICI were interpreted. The interpretation was as follows: FICI ≤ 0.5, synergy; 0.5 < FICI ≤ 4, indifference and FICI > 4, antagonism. Primarily, examined combinations consisted of meropenem (Pol-Aura, Morag, Poland) plus tested agents against carbapenemases-producing strains and ceftazidime (Pol-Aura, Morag, Poland) plus tested agents against AmpC-producing strains. For agents that reduced meropenem MIC at least 4-fold for at least two tested strains, similar assays were performed with imipenem (Pol-Aura, Morag, Poland) and ertapenem (Pol-Aura, Morag, Poland).

[2] = target: KPC-3 in purified protein extract from E. coli 82 TR(pl 81) (Klebsiella pneumoniae, UniProt Q9F663, H272Y); assay: nitrocefin hydrolysis test; format: biochemical; conditions: single repetitions
Sequence of KPC-3 in purified protein extract from E. coli 82 TR(pl 81) (Q9F663 25-293 H272Y): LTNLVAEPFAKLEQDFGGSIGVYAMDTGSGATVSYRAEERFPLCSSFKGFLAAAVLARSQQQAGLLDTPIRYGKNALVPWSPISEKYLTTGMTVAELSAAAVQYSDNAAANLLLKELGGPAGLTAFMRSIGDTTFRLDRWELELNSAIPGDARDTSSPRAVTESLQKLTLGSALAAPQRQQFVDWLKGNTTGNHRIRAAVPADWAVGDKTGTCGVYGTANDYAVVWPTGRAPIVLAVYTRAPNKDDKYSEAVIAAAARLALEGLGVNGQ
Description: Overnight culture of E. coli 82 TR(pl 81) in MHB was diluted 1:100 into fresh MHB and incubated with shaking at 37 °C until an OD600 of 1 was attained. […] Further incubation was performed under the same conditions until an OD600 of 3 was reached. The culture with the required OD600 was centrifuged (6700× g, 10 min) and the supernatant was discarded. From the obtained bacterial cell pellet total proteins were extracted with the ReadyPreps™ Protein Preparation Kit (Epicentre Biotechnologies, Madison, WI, USA) and used in the subsequent nitrocefin hydrolysis test, performed in a 96-well microplate. Nitrocefin is a chromogenic cephalosporin substrate routinely used to detect the presence of β-lactamases. First, 20 μL of the protein extract was mixed with 80 μL of tested agents (1a, 2a, 3a and PBA as a reference BLI, each examined at concentrations: 4, 8 and 16 mg/L) or with 80 μL of the phosphate buffer (positive control—corresponding to KPC enzyme activity in the purified total proteins extracted from E. coli 82 TR(pl 81) cells). After 10 min of incubation at the room temperature 100 μL of the nitrocefin (Oxoid, Basingstoke, Hampshire, England) was added to reach its final concentration of 150 μM. β-lactamases hydrolyze the β-lactam ring of nitrocefin, causing its degradation and color change. Nitrocefin hydrolysis was evaluated after 3 min of the incubation at room temperature.
As in our previous publication the presence of β-lactamases in the purified protein extract with and without tested agents was assessed by the spectrophotometric measurement of the rates of nitrocefin hydrolysis as relative absorbance at 486 nm. The level of the measured absorbance indicated β-lactamase activity. Finally, the difference in the relative absorbance between the positive control and the sample concentration of the tested inhibitors was calculated and expressed as a percentage. A reduction in the relative absorbance level in the presence of a tested agent was taken as an indicator of the BLI activity of a used aromatic diboronic acid. The experiment was performed in triplicate.

Gram-positive strains = assay: direct antimicrobial activity, MIC; format: cell-based
Description: (§3) Direct antimicrobial activity against Gram-negative and Gram-positive bacterial strains, as well as against yeast, was examined as previously described by the disc-diffusion test, the MIC determination assay, the MBC (for bacteria), and the MFC (for yeasts) determination tests. All the above-mentioned tests were performed according to EUCAST [71, 72] and CLSI [73, 74, 75, 76, 77] recommendations. The following reference agents were used: nitrofurantoin (for Gram-negative rods), linezolid (for Gram-positive bacteria), and fluconazole (in the case of fungi). The new aromatic diboronic acids were dissolved in DMSO (Sigma, St. Louis, MO, USA). In the disc-diffusion test, the concentration of new agents was 0.4 mg per disc. Depending on the solubility, the MIC and MBC/MFC values were determined up to 100 mg/L for 1k, up to 200 mg/L for 7c, and up to 400 mg/L for the remaining compounds: 1a–1j, 2a–2g, 3a–3f, 4a–4b, 5a–5c, 6a and 7a–7b.

yeasts = assay: antifungal activity, MIC/MFC; format: cell-based; conditions: for MFC: yeasts against which fungicidal activity was noticed
Description: as §3

Gram-negative rods = assay: MIC in the presence of efflux pump inhibitor PAβN; format: cell-based; conditions: PAβN 20 mg/L
Description: To investigate the contribution of the MDR efflux pumps to the resistance of Gram-negative rods to the newly synthesized compounds, the MIC values of studied agents, with or without the pump inhibitor, PAβN (20 mg/L) (Sigma, St. Louis, MO, USA), were evaluated. The MIC determination was performed in Mueller–Hinton II broth medium (MHB) (Becton, Dickinson and Company, Franklin Lakes, NJ, USA) using 2-fold serial dilutions of tested agents, according to the CLSI guidelines. To minimize the influence of PAβN on the destabilization of bacterial cell covers, the tests were conducted in the presence of 1 mM MgSO4 (Sigma, St. Louis, MO, USA). At least a 4-fold reduction in the MIC value after the addition of PAβN was considered significant.

AmpC producers = assay: microdilution with ceftazidime; format: cell-based
Description: as §1, §2

Compound: OB(O)c1ccc(B(O)O)cc1 [1a]
MIC [1]: > 400 µg/mL
MIC of meropenem in combination with agent ([1]; agent 4 mg/L): 0.50 µg/mL
MIC of meropenem in combination with agent ([1]; agent 8 mg/L): 0.25 µg/mL
MIC of meropenem in combination with agent ([1]; agent 16 mg/L): 0.125 µg/mL
carbapenems' MIC reduction, up to (KPC producers; agent 4 mg/L): ≤ 2 fold
carbapenems' MIC reduction, up to (KPC producers; agent 8 mg/L): up to 8 fold
ertapenem potentiation better than PBA, by up to (KPC producers; all KPC producers): up to 8 fold
Relative absorbance (nitrocefin hydrolysis, 486 nm) ([2]; agent 4 mg/L): 1.348 and 1.320 and 1.308
Relative absorbance (nitrocefin hydrolysis, 486 nm) ([2]; agent 8 mg/L): 1.214 and 1.079 and 1.201
Relative absorbance (nitrocefin hydrolysis, 486 nm) ([2]; agent 16 mg/L): 0.998 and 1.066 and 1.076

MIC (Gram-positive strains; enterococci): 100 to 400 µg/mL (≈ 496 to 1980 µM)
MIC (Gram-positive strains; staphylococci): 12.5 to 50 µg/mL (≈ 62 to 248 µM)
Compound: OB(O)c1ccc(B(O)O)c(F)c1F [1c]

MIC (Gram-positive strains; enterococci): 100 to 400 µg/mL (≈ 496 to 1980 µM)
MIC (Gram-positive strains; staphylococci): 12.5 to 50 µg/mL (≈ 62 to 248 µM)
Compound: OB(O)c1cc(F)c(B(O)O)cc1F [1e]

MIC (yeasts; moderate antifungal activity): 6.25 to 50 µg/mL (≈ 19.3 to 155 µM)
Compound: OB(O)c1cc(Br)c(B(O)O)cc1Br [1i]

Compound: OB(O)c1cccc(B(O)O)c1 [2a]
MIC [1]: > 400 µg/mL
MIC of meropenem in combination with agent ([1]; agent 4 mg/L): 1 µg/mL
MIC of meropenem in combination with agent ([1]; agent 8 mg/L): 1 µg/mL
MIC of meropenem in combination with agent ([1]; agent 16 mg/L): 1 µg/mL
meropenem MIC reduction ([1]; agent 4, 8 and 16 mg/L): 2 fold
Relative absorbance (nitrocefin hydrolysis, 486 nm) ([2]; agent 4 mg/L): 1.605 and 1.649 and 1.595
Relative absorbance (nitrocefin hydrolysis, 486 nm) ([2]; agent 8 mg/L): 1.520 and 1.499 and 1.528
Relative absorbance (nitrocefin hydrolysis, 486 nm) ([2]; agent 16 mg/L): 1.377 and 1.274 and 1.280

Compound: OB(O)c1cc(C(F)(F)F)cc(B(O)O)c1F [2e]
MIC (Gram-positive strains; enterococci): 50 to 100 µg/mL (≈ 199 to 397 µM)
MIC (Gram-positive strains; staphylococci): 0.78 to 12.5 µg/mL (≈ 3.1 to 49.7 µM)
reduction of MIC in the presence of PAβN (Gram-negative rods): 4–16 fold

Compound: OB(O)c1ccccc1B(O)O [3a, phenylene-1,2-diboronic acid]
ceftazidime MIC reduction, up to (AmpC producers; agent 4 mg/L): ≤ 2 fold
ceftazidime MIC reduction, up to (AmpC producers; agent 8 mg/L): up to 4 fold
ceftazidime MIC reduction, up to (AmpC producers; agent 16 mg/L): ≤ 8 fold
MIC of meropenem in combination with agent ([1]; agent 4 mg/L): 0.50 µg/mL
meropenem MIC reduction ([1]; agent 4 mg/L): 4 fold
MIC of meropenem in combination with agent ([1]; agent 8 mg/L): 0.125 µg/mL
meropenem MIC reduction ([1]; agent 8 mg/L): 16 fold
MIC of meropenem in combination with agent ([1]; agent 16 mg/L): 0.062 µg/mL
meropenem MIC reduction ([1]; agent 16 mg/L): 32 fold
carbapenems' MIC reduction, up to (KPC producers; agent 4 mg/L): ≤ 8 fold
carbapenems' MIC reduction, up to (KPC producers; agent 8 mg/L): up to 16 fold
carbapenems' MIC reduction, up to (KPC producers; agent 16 mg/L): up to 64 fold
fractional inhibitory concentrations indices with carbapenems (KPC producers; checkerboard assays): 0.1–0.32
Relative absorbance (nitrocefin hydrolysis, 486 nm) ([2]; agent 4 mg/L): 1.451 and 1.436 and 1.174
Relative absorbance (nitrocefin hydrolysis, 486 nm) ([2]; agent 8 mg/L): 1.305 and 1.279 and 1.249
Relative absorbance (nitrocefin hydrolysis, 486 nm) ([2]; agent 16 mg/L): 1.090 and 1.114 and 1.077

ceftazidime MIC reduction, up to (AmpC producers; agent 4 mg/L): ≤ 2 fold
ceftazidime MIC reduction, up to (AmpC producers; agent 8 mg/L): up to 4 fold
ceftazidime MIC reduction, up to (AmpC producers; agent 16 mg/L): ≤ 8 fold
Compound: OB(O)c1cccc(F)c1B(O)O [3b]

Compound: OB(O)c1ccc(C(F)(F)F)cc1B(O)O [3e]
MIC (yeasts; most Candida spp.): 3.12 to 6.25 µg/mL (≈ 13.3 to 26.7 µM)
MFC (yeasts): 400 µg/mL (≈ 1710 µM)
reduction of MIC in the presence of PAβN (Gram-negative rods): 4–16 fold

ceftazidime MIC reduction, up to (AmpC producers; agent 4 mg/L): ≤ 2 fold
ceftazidime MIC reduction, up to (AmpC producers; agent 8 mg/L): up to 4 fold
ceftazidime MIC reduction, up to (AmpC producers; agent 16 mg/L): ≤ 8 fold
Compound: OB(O)c1ccc(B(O)O)c(B(O)O)c1 [4b, benzene-1,2,4-triboronic]

ceftazidime MIC reduction, up to (AmpC producers; agent 4 mg/L): ≤ 2 fold
ceftazidime MIC reduction, up to (AmpC producers; agent 8 mg/L): up to 4 fold
ceftazidime MIC reduction, up to (AmpC producers; agent 16 mg/L): ≤ 8 fold
Compound: OB(O)c1ccsc1B(O)O [5a, thiophene-2,3-diboronic acid]

ceftazidime MIC reduction, up to (AmpC producers; agent 4 mg/L): ≤ 8 fold
ceftazidime MIC reduction, up to (AmpC producers; agent 8 mg/L): up to 16 fold
ceftazidime MIC reduction, up to (AmpC producers; agent 16 mg/L): up to 32 fold
carbapenems' MIC reduction, up to (KPC producers; agent 4 mg/L): ≤ 2 fold
carbapenems' MIC reduction, up to (KPC producers; agent 8 mg/L): up to 8 fold
Compound: OB(O)c1cc(F)ccc1F [7a, 2,5-difluorophenylboronic acid]

Compound: O=Cc1cc(F)ccc1B(O)O [7b]
MIC (Gram-positive strains; enterococci): 100 to 400 µg/mL (≈ 595 to 2380 µM)
MIC (Gram-positive strains; staphylococci): 12.5 to 50 µg/mL (≈ 74.4 to 298 µM)
reduction of MIC in the presence of PAβN (Gram-negative rods): 4–16 fold

MIC (Gram-positive strains; all tested coccis): 12.5 to 25 µg/mL (≈ 81.2 to 162 µM)
Compound: OB(O)c1ccccc1S [7c, 2-mercaptophenylboronic acid]
MFC (yeasts): 25 to 200 µg/mL (≈ 162 to 1300 µM)

Compound: OB(O)c1ccccc1 [PBA, phenylboronic acid, reference compound]
MIC [1]: > 400 µg/mL
MIC of meropenem in combination with agent ([1]; agent 4 mg/L): 0.50 µg/mL
MIC of meropenem in combination with agent ([1]; agent 8 mg/L): 0.25 µg/mL
MIC of meropenem in combination with agent ([1]; agent 16 mg/L): 0.25 µg/mL
carbapenems' MIC reduction, up to (KPC producers; agent 16 mg/L, KPC-2 producers): up to 8 fold
carbapenems' MIC reduction, up to (KPC producers; agent 16 mg/L, KPC-3 producers): up to 4 fold
Relative absorbance (nitrocefin hydrolysis, 486 nm) ([2]; agent 4 mg/L): 1.093 and 1.087 and 1.232
Relative absorbance (nitrocefin hydrolysis, 486 nm) ([2]; agent 8 mg/L): 1.183 and 1.165 and 1.117
Relative absorbance (nitrocefin hydrolysis, 486 nm) ([2]; agent 16 mg/L): 0.975 and 0.933 and 0.957

From article PMC10648349, “Aromatic Diboronic Acids as Effective KPC/AmpC Inhibitors” (Molecules, 2023)
